Where “and” joins values, the source holds several entries; their conditions need not be identical. Equal values may be shown once. Inconclusive results and toxic doses are left out. Cut-off read from the data, not from the text of the source: active = T/C of 150% or more; inactive = T/C below 125%.
System: L1210 leukemia ip in BDF1 mice, survival T/C
Test: NCI In Vivo Anticancer Drug Screen. Data for tumor model L1210 Leukemia (intraperitoneal) in B6D2F1 (BDF1) mice
Settings: endpoint: mean survival time, higher = longer survival
Outline: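 Ratio derived from survival: compound-dosed mice over vehicle-dosed mice, all bearing a transplantable tumor.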

[1] = dose: 100.0 mg/kg/injection, schedule: Q01DX001 (ip), vehicle: saline
[2] = dose: 200.0 mg/kg/injection, schedule: Q01DX001 (ip), vehicle: saline
[3] = dose: 400.0 mg/kg/injection, schedule: Q01DX001 (ip), vehicle: saline
[4] = dose: 100.0 mg/kg/injection, schedule: Q01DX009 (ip), vehicle: saline with Tween-80
[5] = dose: 200.0 mg/kg/injection, schedule: Q01DX009 (ip), vehicle: saline with Tween-80
[6] = dose: 100.0 mg/kg/injection, schedule: Q04DX003 (ip), vehicle: saline with Tween-80
[7] = dose: 200.0 mg/kg/injection, schedule: Q04DX003 (ip), vehicle: saline with Tween-80
[8] = dose: 400.0 mg/kg/injection, schedule: Q04DX003 (ip), vehicle: saline with Tween-80
[9] = dose: 100.0 mg/kg/injection, schedule: Q01DX009 (ip), vehicle: Klucel (hydroxypropylcellulose) (HPC)
[10] = dose: 100.0 mg/kg/injection, schedule: Q04DX003 (ip), vehicle: Klucel (hydroxypropylcellulose) (HPC)
[11] = dose: 200.0 mg/kg/injection, schedule: Q01DX009 (ip), vehicle: Klucel (hydroxypropylcellulose) (HPC)
[12] = dose: 200.0 mg/kg/injection, schedule: Q04DX003 (ip), vehicle: Klucel (hydroxypropylcellulose) (HPC)
[13] = dose: 400.0 mg/kg/injection, schedule: Q01DX009 (ip), vehicle: Klucel (hydroxypropylcellulose) (HPC)
[14] = dose: 400.0 mg/kg/injection, schedule: Q04DX003 (ip), vehicle: Klucel (hydroxypropylcellulose) (HPC)
[15] = dose: 25.0 mg/kg/injection, schedule: Q01DX009 (ip), vehicle: saline with Tween-80
[16] = dose: 50.0 mg/kg/injection, schedule: Q01DX009 (ip), vehicle: saline with Tween-80
[17] = dose: 100.0 mg/kg/injection, schedule: Q04DX002 (ip), vehicle: saline
[18] = dose: 200.0 mg/kg/injection, schedule: Q04DX002 (ip), vehicle: saline
[19] = dose: 400.0 mg/kg/injection, schedule: Q04DX002 (ip), vehicle: saline
[20] = dose: 100.0 mg/kg/injection, schedule: Q01DX001 (ip), vehicle: carboxymethylcellulose (CMC)
[21] = dose: 200.0 mg/kg/injection, schedule: Q01DX001 (ip), vehicle: carboxymethylcellulose (CMC)
[22] = dose: 400.0 mg/kg/injection, schedule: Q01DX001 (ip), vehicle: carboxymethylcellulose (CMC)

Measured: T/C

O=c1oc2ccc(F)cc2c2ccccc12
inactive: dose: 100.0 mg/kg/injection, schedule: Q01DX001 (ip), vehicle: Klucel (hydroxypropylcellulose) (HPC) 92 % of control | dose: 200.0 mg/kg/injection, schedule: Q01DX001 (ip), vehicle: Klucel (hydroxypropylcellulose) (HPC) 103 % of control | dose: 400.0 mg/kg/injection, schedule: Q01DX001 (ip), vehicle: Klucel (hydroxypropylcellulose) (HPC) 90 % of control

O=C(/C=C\c1ccccc1)NCCNC(=O)/C=C/c1ccccc1
inactive: [1] 105 % of control | [2] 94 % of control | [3] 108 % of control

O=C(O)Cc1cc2c(cc1I)OCO2
inactive: [4] 98 % of control | [5] 104 % of control | dose: 400.0 mg/kg/injection, schedule: Q01DX009 (ip), vehicle: saline with Tween-80 109 % of control

N=C(CNC(=O)OCc1ccccc1)N1CCCC1C(=O)O (stereo unspecified)
inactive: [6] 100 % of control | [7] 101 % of control | [8] 101 % of control

Nc1cccc2c1C(O)c1ccccc1-2 (stereo unspecified)
inactive: [6] 101 % of control | [7] 97 % of control | [8] 101 % of control

CC1(c2cccnc2)OCCO1
inactive: dose: 75.0 mg/kg/injection, schedule: Q01DX001 (ip), vehicle: saline 97 % of control | dose: 150.0 mg/kg/injection, schedule: Q01DX001 (ip), vehicle: saline 98 % of control | dose: 300.0 mg/kg/injection, schedule: Q01DX001 (ip), vehicle: saline 95 % of control

O=C1c2ccccc2C(=O)N1CNc1ccccc1
inactive: [9] 103 % of control | [10] 104 % of control | [11] 98 % of control | [12] 102 % of control | [13] 93 % of control | [14] 94 % of control

CCOc1ccc(NC(=S)NC(=O)c2ccccc2F)cc1
inactive: [15] 92 % of control | [16] 104 % of control | [4] 87 % of control | [5] 87 % of control

CCCCCCCCCCCCC(=O)N1CCCC1
inactive: [17] 104 % of control | [18] 104 % of control | [19] 96 % of control

O=C(/C=C/c1ccccc1)NC(=S)NCc1ccco1
inactive: [9] 94 % of control and 95 % of control | dose: 100.0 mg/kg/injection, schedule: Q04DX002 (ip), vehicle: Klucel (hydroxypropylcellulose) (HPC) 97 % of control | [10] 95 % of control | [11] 92 % of control and 98 % of control | dose: 200.0 mg/kg/injection, schedule: Q04DX002 (ip), vehicle: Klucel (hydroxypropylcellulose) (HPC) 101 % of control and 114 % of control | [12] 95 % of control | [13] 94 % of control and 95 % of control | dose: 400.0 mg/kg/injection, schedule: Q04DX002 (ip), vehicle: Klucel (hydroxypropylcellulose) (HPC) 95 % of control and 102 % of control | [14] 94 % of control

COC(=O)c1ccccc1-c1ccccc1C(=O)O
inactive: dose: 44.0 mg/kg/injection, schedule: Q01DX001 (ip), vehicle: other 101 % of control | dose: 66.0 mg/kg/injection, schedule: Q01DX001 (ip), vehicle: other 106 % of control | dose: 100.0 mg/kg/injection, schedule: Q01DX001 (ip), vehicle: other 93 % of control | dose: 150.0 mg/kg/injection, schedule: Q01DX001 (ip), vehicle: other 95 % of control | dose: 200.0 mg/kg/injection, schedule: Q01DX001 (ip), vehicle: other 98 % of control | dose: 400.0 mg/kg/injection, schedule: Q01DX001 (ip), vehicle: other 98 % of control

COc1ccc(S(=O)Nc2ccccc2)cc1 (stereo unspecified)
inactive: dose: 25.6 mg/kg/injection, schedule: Q04DX002 (ip), vehicle: saline with Tween-80 108 % of control | dose: 64.0 mg/kg/injection, schedule: Q04DX002 (ip), vehicle: saline with Tween-80 115 % of control | dose: 160.0 mg/kg/injection, schedule: Q04DX002 (ip), vehicle: saline with Tween-80 101 % of control | dose: 400.0 mg/kg/injection, schedule: Q04DX002 (ip), vehicle: saline with Tween-80 112 % of control | [8] 95 % of control

Cn1c(C(C)(C)O)cc2ccccc21
inactive: [6] 102 % of control | [7] 107 % of control | [8] 100 % of control

C=CC1CN2CCC1CC2C(O)c1ccnc2ccccc12 (stereo unspecified) (tested in a mixture with another compound)
inactive: [15] 101 % of control | [16] 98 % of control | [20] 91 % of control | [4] 93 % of control | [21] 98 % of control | [22] 93 % of control

CN1CCN(C)P1N1CCCC1
inactive: [1] 89 % of control | [2] 95 % of control | [3] 93 % of control

CCSC(SCC)C1OC(C)(C)OC1C1COC(C)(C)O1 (stereo unspecified)
inactive: [20] 103 % of control | [6] 96 % of control | [21] 103 % of control | [7] 94 % of control | [22] 103 % of control | [8] 91 % of control

CCC(=O)OC1CC2(C)C(=CC1=O)CCC1C2CCC2(C)C(OC(=O)CC)CCC12 (stereo unspecified)
inactive: dose: 100.0 mg/kg/injection, schedule: Q01DX009 (ip), vehicle: saline 97 % of control | dose: 200.0 mg/kg/injection, schedule: Q01DX009 (ip), vehicle: saline 96 % of control | dose: 400.0 mg/kg/injection, schedule: Q01DX009 (ip), vehicle: saline 96 % of control

CC(C)(C)c1ccc2oc(-c3ccc(-c4nc5cc(C(C)(C)C)ccc5o4)s3)nc2c1
inactive: dose: 100.0 mg/kg/injection, schedule: Q04DX003 (ip), vehicle: gum acacia 92 % of control | dose: 200.0 mg/kg/injection, schedule: Q04DX003 (ip), vehicle: gum acacia 99 % of control

O=[N+]([O-])/C=C/c1ccc([N+](=O)[O-])cc1
inactive: dose: 6.25 mg/kg/injection, schedule: Q01DX005 (ip), vehicle: saline with Tween-80 110 % of control | dose: 12.5 mg/kg/injection, schedule: Q01DX005 (ip), vehicle: saline with Tween-80 104 % of control | dose: 25.0 mg/kg/injection, schedule: Q01DX005 (ip), vehicle: saline with Tween-80 114 % of control | dose: 50.0 mg/kg/injection, schedule: Q01DX009 (ip), vehicle: Klucel (hydroxypropylcellulose) (HPC) 93 % of control | [9] 97 % of control | [10] 96 % of control | [12] 104 % of control

COC1=CCC2=C(CCO2)C1
inactive: dose: 100.0 mg/kg/injection, schedule: Q04DX003 (ip), vehicle: acetone 95 % of control | dose: 200.0 mg/kg/injection, schedule: Q04DX003 (ip), vehicle: acetone 95 % of control | dose: 400.0 mg/kg/injection, schedule: Q04DX003 (ip), vehicle: acetone 96 % of control

CCCNC(=O)NCCN(CC)c1ccccc1
inactive: [20] 97 % of control | dose: 100.0 mg/kg/injection, schedule: Q01DX009 (ip), vehicle: carboxymethylcellulose (CMC) 93 % of control and 101 % of control | dose: 100.0 mg/kg/injection, schedule: Q04DX002 (ip), vehicle: carboxymethylcellulose (CMC) 94 % of control and 97 % of control | dose: 100.0 mg/kg/injection, schedule: Q04DX003 (ip), vehicle: carboxymethylcellulose (CMC) 100 % of control | [21] 96 % of control | dose: 200.0 mg/kg/injection, schedule: Q01DX009 (ip), vehicle: carboxymethylcellulose (CMC) 104 % of control and 87 % of control | dose: 200.0 mg/kg/injection, schedule: Q04DX002 (ip), vehicle: carboxymethylcellulose (CMC) 105 % of control and 87 % of control | dose: 200.0 mg/kg/injection, schedule: Q04DX003 (ip), vehicle: carboxymethylcellulose (CMC) 109 % of control | [22] 96 % of control | dose: 400.0 mg/kg/injection, schedule: Q01DX009 (ip), vehicle: carboxymethylcellulose (CMC) 93 % of control and 103 % of control | dose: 400.0 mg/kg/injection, schedule: Q04DX002 (ip), vehicle: carboxymethylcellulose (CMC) 93 % of control and 97 % of control | dose: 400.0 mg/kg/injection, schedule: Q04DX003 (ip), vehicle: carboxymethylcellulose (CMC) 102 % of control

CCCN(CCC)CCCCN(CCC)CCCN(CCC)CCC
inactive: [1] 107 % of control | [2] 94 % of control

NC(=O)C1CCNCC1
inactive: [17] 108 % of control | [18] 102 % of control | [19] 115 % of control
